# Experimental data reported in patent publication EP1685120B1, “COLOURING HYDROSOLUBLE YELLOW PREPARATION DERIVED FROM DIHYDROCHALCONES” (INSTITUT NATIONAL DE LA RECHERCHE AGRONOMIQUE, priority 2003, dated 2005).
# Several values for one entry are separate records, joined by “and”; a condition that tells them apart may be missing. Equal entries are not always repeated. Where two headings read alike, the source gives them in different places.
# Experiments:
# [1] = DPPH method, antioxidant capacity in methanolic medium (after Brand-Williams et al., 1995); type: biochemical; settings: for TEAC (Trolox équivalent antioxidant capacity): DPPH, relative to Trolox; for capacité antioxydante: overall conclusion in words from DPPH and FRAP
# Excerpt: (§1) Pour comparaison ou pour l'expression des résultats, les capacités antioxydantes des composés suivants ont été également mesurées : vitamine C (acide ascorbique), Trolox (analogue hydrosoluble de la vitamine E), (-)-épicatéchine, et phloridzine.
# Les résultats sont présentés dans les tableaux II et III ci dessous.
# [2] = FRAP method (Ferric Reducing Antioxidant Power), aqueous medium, 10 min incubation (after Pulido et al., 2000); type: biochemical; settings: for EC1: antioxidant concentration with reducing power equivalent to 1 mmol/L FeSO4 7 H2O, 10 min incubation, mean of 3 (SD); for TEAC: FRAP, Trolox equivalent, (SD)
# Experimental: as §1
# Tableau III - Mesure de la capacité antioxydante en milieu aqueux par la méthode FRAP pour 10 minutes d'incubation (d'après Pulido et al., 2000).
# [3] = sign only; other natural yellow colourants, source not given; cited from earlier work
# [4] = values of Pulido et al. (2000); cited from earlier work
# [5] = system: cellules TC-7; assay: Cytotoxicity test, cell viability by neutral red method; type: cell-based; settings: for % Témoin / DO Moyenne: 2 h; for % Témoin: cell viability; for DO Moyenne: mean of 5
# Experimental: Cellules TC-7 (sous clone de caco-2) cultivées sur nacelles (membrane en polyéthylène téréphtalate), utilisées à 21 jours de confluence, fournie par Bioprédic International
# Emploi des cellules au passage 21.
# Pas de solvant utilisé pour la solubilisation des produits à l'essai.
# Système réactionnel : cultures de cellules TC-7 incubées en présence des produits à l'essai aux différentes concentrations citées ci-dessus.
# Temps d'incubation : 2 heures. [drawing 6] ↑ : incubation des produits à l'essai ? : évaluation des effets Replicate : 5 par concentrations. Température d'incubation : 37°C. Autres conditions : atmosphère humide contenant 5 % de CO2.
# Témoin : correspondant aux cellules incubées en absence de produit à l'essai [drawing 8] Replicate : 10
# Viabilité cellulaire mesurée selon la méthode du rouge neutre après incubation avec les produits à l'essai : • incubation en présence de rouge neutre pendant 3 heures • lyse des cellules et lecture de la densité optique avec un spectrophotomètre à 540 nm (la densité optique du rouge neutre est proportionnelle au nombre de cellules vivantes).
# Expression des résultats : en unités arbitraires de D.O.(densité optique) par échantillon et en pourcentage de variation par rapport au groupe témoin.
# [6] = Colorimetric parameters CIE L*a*b* (Minolta CM-3600d spectrophotometer) in Mc Ilvaine buffer; type: physicochemical; parameters: key to L* : luminosité / a* : axe vert-rouge / b* : axe bleu-jaune: CIE L*a*b* coordinates (illuminant D65, 10° observer)
# Excerpt: Les paramètres de coloration du colorant par rapport à de l'eau distillée (référence) ont été mesurés en solution dans un tampon de M^c Ilvaine (citrate-phosphate) à différents pH (2,2 à 8) et ce, pour plusieurs concentrations.
# Les mesures ont été réalisées à l'aide d'un spectrophotomètre Minolta CM-3600d (©1998 Minolta Co., Ltd. Japon) avec la plaque de calibration (Minolta n° 13171008). Le spectrophotomètre équipé d'un logiciel de retraitement SpectraMagic V 3.60G (Cyberchrome Inc Minolta Co. Ltd), a été paramétré pour utiliser l'espace colorimétrique CIE L*a*b (Figure 2), avec l'illuminant D65-10° (D65-A-F2), et l'observateur moyen normalisé 10° CIE 1964 (sensibilité d'un oeil moyen). A partir des valeurs a* et b* nous avons calculé les coordonnées polaires C* = sqrt(((a*))^2 + ((b*))^2) et h = tan g^-1 ((a*)/(b*)) × (180)/(Pi) [formula] Dans la suite du texte nous exploiterons principalement ces coordonnées polaires C* et h, car elles ont chacune une signification colorimétrique : C* est la distance au centre de l'espace et correspond à la saturation de la couleur alors que h est un angle (exprimé ici en degré) qui définit la teinte. A titre indicatif pour la couleur rouge la teinte se situe au voisinage de 0°, pour le jaune environ 90°, pour le vert 180° et pour le bleu 270°. La valeur L* est utilisée telle quelle et exprime la clarté.
# [7] = Molar extinction coefficient (UV-visible); type: physicochemical
# Excerpt: Une solution à 20 ppm de ce composéest jaune intense.
# Le spectre UV-visible d'une solution de préparation POP a été mesuré pour différents pH entre 2 et 8 (voir figure 1). Des mesures de couleur (chromamètre Minolta) ont également été réalisées dans cette zone de pH. Les résultats détaillés des paramètres colorimétriques sont consignés ci-après.
# [8] = Optical density at 420 nm of the esterification reaction medium (colouring capacity); type: physicochemical; settings: unpurified POP fraction incubated with acidified alcohol, 50 °C, 1 h
# Excerpt: Le volume d'alcool est ajusté de façon à avoir une concentration finale en fraction POP de 1 g.L^-1. Les alcools suivants ont été testés : méthanol, propanol-1, propanol-2, butanol-1, butanol-3, hexanol-1, octanol-1.
# Confirmation de la conversion en esters : la formation des esters correspondant a été montrée par HPLC couplée à la spectrométrie de masse en mode négatif et avec également en série une détection à 420 nm (jaune). […] Tableau I: Temps de rétention chromatographique, ions pseudo-moléculaires et rendements de conversion du composé de formule I-b-1 et de ses dérivés estérifiés.
# [9] = 5 mg/L, pH 3, tampon de Mc Ilvaine
# [10] = 10 mg/L, pH 3, tampon de Mc Ilvaine
# [11] = 20 mg/L, pH 3, tampon de Mc Ilvaine
# [12] = 40 mg/L, pH 3, tampon de Mc Ilvaine
# [13] = 100 mg/L, pH 3, tampon de Mc Ilvaine
# [14] = pH 2,2, env. 20 mg/L, tampon de Mc Ilvaine
# [15] = pH 3, env. 20 mg/L, tampon de Mc Ilvaine
# [16] = pH 4, env. 20 mg/L, tampon de Mc Ilvaine
# [17] = pH 5, env. 20 mg/L, tampon de Mc Ilvaine
# [18] = pH 6, env. 20 mg/L, tampon de Mc Ilvaine
# [19] = pH 7, env. 20 mg/L, tampon de Mc Ilvaine
# [20] = pH 8, env. 20 mg/L, tampon de Mc Ilvaine
molecule,measurement,setting,value
"O=C(O)CCc1cc(O)c(O)cc1-c1c(O)cc(O)cc1C1O[C@H](CO)[C@@H](O)[C@H](O)[C@H]1O (stereo partly drawn) [I-a-1, acide 3-(4,5,4',6'-tetrahydroxy-2'-glucosyl-biphenyl-2-yl)-propionique]",TEAC (Trolox équivalent antioxidant capacity),[1],"0,78"
same,"capacité antioxydante, fold over phloridzine",[1]; overall conclusion from DPPH and FRAP,10 fois
same,capacité antioxydante,[1],capacité antioxydante importante
same,EC1,[2],477 (15) µmol/L
O=c1c(O)c(-c2ccc(O)c(O)c2)oc2cc(O)cc(O)c12 [quercétine],logP (P coeff. de partage [n-octanol/eau]),[3],positif
"O=C1O[C@H]([C@@H](O)CO)C(O)=C1O [Vitamine C, acide ascorbique]",TEAC (Trolox équivalent antioxidant capacity),[1],"0,98"
same,TEAC,[2],1.03 (0.02)
same,EC1,[2],400 (9) µmol/L
same,EC1,[2]; listed as vitamine C,400 µmol/L
same,EC1,[4],392
Cc1c(C)c2c(c(C)c1O)CCC(C)(C(=O)O)O2 (stereo not drawn) [Trolox],TEAC (Trolox équivalent antioxidant capacity),[1],"1,00"
same,TEAC,[2],1.00 (0.02)
same,EC1,[2],411 µmol/L and 411 (10) µmol/L
same,EC1,[4],322
"O=C(CCc1ccc(O)cc1)c1c(O)cc(O)cc1O[C@@H]1O[C@H](CO)[C@@H](O)[C@H](O)[C@H]1O [Phloridzine, phloridzine, reference compound]",TEAC (Trolox équivalent antioxidant capacity),[1],"0,09"
same,capacité antioxydante,[1],très faible
same,TEAC,[2],0.08 (0.00)
"acide 3-(4'-hydroxy-2'-glucosyl-4,5-dioxo-3,6-dihydro-2H-dibenzofuran-2-yl)-propionique [I-b-1]",TEAC (Trolox équivalent antioxidant capacity),[1],"0,09"
same,capacité antioxydante,[1],faible capacité antioxydante
same,% Témoin,[5]; 20 µM,101%
same,DO Moyenne,[5]; 20 µM,"0,489"
same,% Témoin,[5]; 100 µM,104%
same,DO Moyenne,[5]; 100 µM,"0,504"
same,% Témoin,[5]; 200 µM,96%
same,DO Moyenne,[5]; 200 µM,"0,467"
same,effet sur la viabilité cellulaire,[5]; 1000 µM,une légère diminution de la viabilité cellulaire
same,% Témoin,[5]; 1000 µM,104%
same,DO Moyenne,[5]; 1000 µM,"0,504"
same,% Témoin,[5]; 2000 µM,93%
same,DO Moyenne,[5]; 2000 µM,"0,448"
same,effet sur la viabilité cellulaire,[5]; at the tested concentrations (20-2000 µM),n'a pas eu d'effet sur la viabilité cellulaire
same,effet sur la viabilité cellulaire,[5]; jusqu'à 200 µM,Aucun effet inhibiteur de référence n'a été noté
same,L* : luminosité,[6]; [9],"99,6"
same,Teinte CIE,[6]; [9],"3,5"
same,a* : axe vert-rouge,[6]; [9],"-4,6"
same,b* : axe bleu-jaune,[6]; [9],"11,5"
same,L* : luminosité,[6]; [10],"99,3"
same,Teinte CIE,[6]; [10],"6,7"
same,a* : axe vert-rouge,[6]; [10],"-8,5"
same,b* : axe bleu-jaune,[6]; [10],"22,8"
same,L* : luminosité,[6]; [11],"98,7"
same,Teinte CIE,[6]; [11],"11,1"
same,a* : axe vert-rouge,[6]; [11],"-13,6"
same,b* : axe bleu-jaune,[6]; [11],"41,5"
same,L* : luminosité,[6]; [12],"97,9"
same,Teinte CIE,[6]; [12],"14,3"
same,a* : axe vert-rouge,[6]; [12],"-17,7"
same,b* : axe bleu-jaune,[6]; [12],"67,1"
same,L* : luminosité,[6]; [13],"96,5"
same,Teinte CIE,[6]; [13],"10,4"
same,a* : axe vert-rouge,[6]; [13],"-17,8"
same,b* : axe bleu-jaune,[6]; [13],"96,0"
same,L* : luminosité,[6]; [14],"98,7"
same,Teinte CIE,[6]; [14],"11,2"
same,a* : axe vert-rouge,[6]; [14],"-13,5"
same,b* : axe bleu-jaune,[6]; [14],"40,7"
same,L* : luminosité,[6]; [15],"98,5"
same,Teinte CIE,[6]; [15],"11,0"
same,a* : axe vert-rouge,[6]; [15],"-13,4"
same,b* : axe bleu-jaune,[6]; [15],"41,1"
same,L* : luminosité,[6]; [16],"98,4"
same,Teinte CIE,[6]; [16],"10,2"
same,a* : axe vert-rouge,[6]; [16],"-13,2"
same,b* : axe bleu-jaune,[6]; [16],"42,3"
same,L* : luminosité,[6]; [17],"97,5"
same,Teinte CIE,[6]; [17],"5,9"
same,a* : axe vert-rouge,[6]; [17],"-11,4"
same,b* : axe bleu-jaune,[6]; [17],"46,7"
same,L* : luminosité,[6]; [18],"93,5"
same,Teinte CIE,[6]; [18],"-20,5"
same,a* : axe vert-rouge,[6]; [18],"-0,1"
same,b* : axe bleu-jaune,[6]; [18],"57,7"
same,L* : luminosité,[6]; [19],"88,1"
same,Teinte CIE,[6]; [19],"-63,5"
same,a* : axe vert-rouge,[6]; [19],"16,3"
same,b* : axe bleu-jaune,[6]; [19],"71,4"
same,L* : luminosité,[6]; [20],"87,1"
same,Teinte CIE,[6]; [20],"-71,8"
same,a* : axe vert-rouge,[6]; [20],"19,5"
same,b* : axe bleu-jaune,[6]; [20],"72,2"
same,Teinte CIE,[6]; pH inférieur à 5-6 (yellow),10
same,Teinte CIE,[6]; pH supérieurs (orange),-50
same,coefficient d'extinction molaire,"[7]; 420 nm à pH 3, estimated",17400 mol⁻¹ cm⁻¹
same,coefficient d'extinction molaire ε,[7]; pH 3,17 400 DO.mol^-1.L^-2.cm^-1
same,"DO 420 nm (jaune) du milieu réactionnel dilué à 0,1 g/l",[8],"0,973"
COc1cc(/C=C/C(=O)CC(=O)/C=C/c2ccc(O)c(OC)c2)ccc1O [curcumine],logP (P coeff. de partage [n-octanol/eau]),[3],positif
Oc1cc(O)c2c(c1)O[C@H](c1ccc(O)c(O)c1)[C@H](O)C2 [(-)-épicatéchine],TEAC (Trolox équivalent antioxidant capacity),[1],"1,12"
same,TEAC,[2],1.14 (0.03)
same,EC1,[2],359 µmol/L and 359 (11) µmol/L
same,EC1,[4],348
